This is an account of results in patent publication US20240116885A1, “BENZOTHIAZOLE AND QUINOLINE DERIVATIVES AND THEIR USE” (Shanghai Yao Yuan Biotechnology Co., Ltd., priority 2020, published 2024).

Counter-ions that a name gives are not always drawn.

For one test, the target named is T237M hALPK1 mutant (Homo sapiens (Human), UniProt Q96QP1, T237M). Put plainly: Inhibition of IL-8 secretion in HEK293 cells (A2) stably expressing T237M hALPK1 mutant. The format is cell-based. As to conditions: 40 hours with compound, IL-8 ELISA, relative to wild-type HEK293 cells, read-out: Half maximal inhibitory concentration (IC50) of IL-8 secretion in cells expressing T237M mutant. From the text: (§1) Activating mutations in ALPK1 are associated with diseases and disorders such as cancer, spiroandenoma, spiroandenocarcinoma, ROSAH syndrome, and PFAPA syndrome. We conducted further experiments to evaluate the ability of representative compounds to inhibit ALPK1 in the context of two activating mutations, T237M and V1092A. In preliminary experiments we determined that IL-8 protein secretion was elevated in cells transiently transfected with human ALPK1 expression vectors containing each of these activating mutations. Accordingly, we used IL-8 secretion as an indicator of activated ALPK1 inhibition in cells expressing these mutations.
T237M hALPK1 mutant, sequence (Q96QP1 whole entry T237M): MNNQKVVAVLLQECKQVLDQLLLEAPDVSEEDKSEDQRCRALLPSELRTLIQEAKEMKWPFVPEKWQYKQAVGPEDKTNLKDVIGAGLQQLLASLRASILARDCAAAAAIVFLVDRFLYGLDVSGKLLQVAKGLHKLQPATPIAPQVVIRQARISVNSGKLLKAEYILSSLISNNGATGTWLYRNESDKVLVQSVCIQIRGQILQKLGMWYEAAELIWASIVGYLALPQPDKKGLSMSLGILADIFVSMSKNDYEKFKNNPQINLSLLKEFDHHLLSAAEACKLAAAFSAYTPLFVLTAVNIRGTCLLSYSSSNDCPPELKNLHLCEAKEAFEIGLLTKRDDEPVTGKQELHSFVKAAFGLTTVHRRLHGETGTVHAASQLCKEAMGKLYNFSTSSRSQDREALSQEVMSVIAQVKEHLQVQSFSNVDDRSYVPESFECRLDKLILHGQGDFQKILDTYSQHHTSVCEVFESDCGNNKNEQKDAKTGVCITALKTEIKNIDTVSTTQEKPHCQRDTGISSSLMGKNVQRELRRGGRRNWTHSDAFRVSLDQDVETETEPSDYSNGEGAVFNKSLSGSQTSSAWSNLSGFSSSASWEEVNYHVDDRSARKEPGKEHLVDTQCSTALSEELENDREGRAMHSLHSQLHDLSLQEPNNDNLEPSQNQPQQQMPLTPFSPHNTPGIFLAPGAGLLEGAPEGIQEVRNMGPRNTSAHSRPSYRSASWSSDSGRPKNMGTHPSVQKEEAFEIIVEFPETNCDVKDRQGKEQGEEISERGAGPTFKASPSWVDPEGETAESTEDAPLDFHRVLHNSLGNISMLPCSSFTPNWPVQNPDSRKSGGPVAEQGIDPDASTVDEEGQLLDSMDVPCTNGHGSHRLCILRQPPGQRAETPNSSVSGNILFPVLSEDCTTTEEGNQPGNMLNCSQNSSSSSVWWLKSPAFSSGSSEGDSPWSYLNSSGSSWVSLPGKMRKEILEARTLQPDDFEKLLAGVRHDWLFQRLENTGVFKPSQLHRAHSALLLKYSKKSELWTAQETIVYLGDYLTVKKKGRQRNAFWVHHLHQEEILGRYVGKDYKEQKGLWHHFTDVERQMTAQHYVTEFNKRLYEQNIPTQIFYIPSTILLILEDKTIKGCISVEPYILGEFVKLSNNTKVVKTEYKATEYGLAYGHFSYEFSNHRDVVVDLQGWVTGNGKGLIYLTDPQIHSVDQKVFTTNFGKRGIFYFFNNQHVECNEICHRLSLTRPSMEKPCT
(§2) HEK293 cells were cultured as described above prior to transient transfection with either empty vector or an expression vector encoding (i) human ALPK1 (hALPK1), (ii) hALPK1 with the T237M activating mutation (hALPK1-T237M) (iii) hALPK1 with the V1092A activating mutation (hALPK1-V1092A), or (iv) a kinase dead ALPK1 mutant (hALPK1-T237M-D1194S). Transfection was performed according to manufacturer's protocols (Lipofectamine™ 3000, ThermoFisher). Transfected cells were selected, seeded onto 96-well plates and treated with serial dilutions of the test compounds for 6.5 hr. Following treatment, cell viability was determined using a luminescent cell viability assay (Cell Counting-Lite Assay or “CCL Assay” from Vazyme Biotech Co., Ltd.) and cell free supernatants were collected and analyzed for IL-8 protein by IL-8 ELISA as described above. […] As shown in the figure, very little IL-8 was detectable in cells transfected with any of the empty vector, hALPK1, or the kinase dead hALPK1 mutant. In contrast, both of the activating mutations in hALPK1 induced significant IL-8 secretion.
Next, we tested a representative set of compounds for inhibition of IL-8 secretion in cells expressing each of the activating ALPK1 mutants, T237M and V1092A. […] For the T237M mutant study, we produced an HEK293 cell line (“A2”) stably expressing the T237M hALPK1 mutant. A2 cells were cultured in the presence of test compound for 40 hours total. Fresh medium and compound were added at 24 hours. Cell viability and IL-8 secretion were determined 16 hours after the second addition of compound, using the CCL assay and IL-8 ELISA as described above.
On the technique in general: ELISA stands for enzyme-linked immunosorbent assay.

For another test, the target named is ALPK1 (Homo sapiens (Human), UniProt Q96QP1). Put plainly: ALPK1 in vitro kinase assay (HTRF, TIFA phosphorylation). The format is biochemical. Conditions: ADP-Heptose activated ALPK1. How it is done: ALPK1 kinase activity was measured in an in vitro assay using ADP-Heptose as the ALPK1 ligand and activator of its kinase activity and TIFA protein as the ALPK1 phosphorylation substrate. Since phosphorylated TIFA proteins oligomerize, Homogeneous Time-Resolved Fluorescence (HTRF) was used to measure protein:protein interaction between HA-tagged TIFA proteins as an indicator of TIFA phosphorylation.
ALPK1, sequence (Q96QP1 whole entry): as the sequence (Q96QP1 whole entry T237M) above, with M237T counted along it
In brief, dose-response studies were performed with HEK293 cells cultured in Dulbecco's Modified Eagle Medium (DMEM) supplemented 10% fetal bovine serum (FBS, Hyclone™) containing antibiotics (pen/strep, G418) in 384-well assay plates. Each well contained 0.1 mg TIFA, ALPK1 (2 nM final concentration in reaction mixture) and kinase buffer (100 mM of HEPES pH 7.4, 4 mM DTT, 40 mM MgCl2, 20 mM of β-Glycerol phosphate disodium salt, 0.4 mM of Na3VO4, 0.16 mg/mL). Titrations of the test compounds were prepared in dimethylsulphoxide (DMSO). The reaction was initiated by addition of ATP and ADP-Heptose.
For HTRF, samples were incubated with a Tb cryptate-labeled anti-HA antibody for capturing HA-tagged proteins according to the manufacturer's instructions (PerkinElmer™, CisBio™) and the fluorescence signal was quantified (Tecan Infinite F NANO+). HTRF signals were calculated as the HTRF ratio (ratio of fluorescence measured at 665 nm and 620 nm)×104 (thereby using the signal at 620 nm as an internal standard).
IC50 values were determined using 3- or 4-parameter logistic equation using GraphPad Prism version 6.00. The reference compound, A027, was used as a positive control for each plate.

For the next test, the target named is hALPK1-V1092A (Homo sapiens (Human), UniProt Q96QP1, V1092A). Put plainly: Inhibition of IL-8 secretion in HEK293 cells transiently transfected with hALPK1-V1092A. The format is cell-based. Conditions: transient transfection, 24 hours with compound, IL-8 ELISA, relative to wild-type HEK293 cells; read-out: Half maximal inhibitory concentration (IC50) of IL-8 secretion in cells expressing V1092A mutant.
hALPK1-V1092A, sequence (Q96QP1 whole entry V1092A): as the sequence (Q96QP1 whole entry T237M) above, with M237T, V1092A counted along it
From the text: as §1, §2
For the V1092A mutant study shown in Table 4, HEK293 cells were transiently transfected with hALPK1-V1092A or hALPK1 (wildtype) expression vectors and then treated with test compounds for 24 hours. Fresh medium and compound were added at 18 hours.

For test [1], the system named is ALPK1-dependent NFκB reporter gene activation. Put plainly: NFκB gene reporter alkaline phosphatase assay in HEK293 G9 cells. Conditions: Homo sapiens; HEK293 G9 cells stimulated with D-glycero-D-manno-6-fluoro-heptose-1β-S-ADP. The format is cell-based. How it is done: An alkaline phosphatase reporter assay system was used to measure inhibition of ALPK1-dependent NFκB reporter gene activation. Briefly, HEK293 cells stably expressing an NF-kB reporter (referred to herein as “G9 cells”) were maintained in DMEM as described above. For the assay, cells were seeded into 96-well plates at a density of 10,000 cells/well in Freestyle™ 293 Expression Medium (ThermoFisher), and allowed to attach overnight. Cells were pretreated with serially diluted compounds for 30 min and then stimulated with D-glycero-D-manno-6-fluoro-heptose-1β-S-ADP. […] NFkB gene activation was detected using the chromogenic substrate, para-nitrophenyl phosphate (pNPP) according to the manufacturer's protocols (pNPP Phosphatase Assay, Beyotime Biotechnology).

For `COc1cccc2sc(NC(=O)c3c(F)cc(N4CCNCC4)cc3F)nc12` [Compound T017, 2,6-difluoro-N-(4-methoxybenzo[d]thiazol-2-yl)-4-(piperazin-1-yl)benzamide hydrochloride], the IC50 at T237M hALPK1 mutant turned out to be 1470 nM; against ALPK1, 14 nM; at hALPK1-V1092A, 5030 nM; in test [1], 690 nM.
With `O=C(Nc1nc2c(Br)cccc2s1)c1c(F)cc(N2CCNCC2)cc1F` [Compound T019, N-(4-bromobenzo[d]thiazol-2-yl)-2,6-difluoro-4-(piperazin-1-yl)benzamide hydrochloride], the IC50 on T237M hALPK1 mutant was determined as 668 nM; at ALPK1, 11 nM; at hALPK1-V1092A, 3170 nM; in test [1], 760 nM.
Taken in the same sequence, the figures for `C#Cc1cccc2sc(NC(=O)c3c(F)cc(N4CCN(C)CC4)cc3F)nc12` [Compound T047, N-(4-ethynylbenzo[d]thiazol-2-yl)-2,6-difluoro-4-(4-methylpiperazin-1-yl)benzamide] were 635 nM, 13 nM, 1810 nM and 810 nM.
Regarding `C#Cc1cccc2sc(NC(=O)c3c(F)cc(N4CCNC[C@@H]4C)cc3F)nc12` [Compound T054, (S)-N-(4-ethynylbenzo[d]thiazol-2-yl)-2,6-difluoro-4-(2-methylpiperazin-1-yl)benzamide], the IC50 on T237M hALPK1 mutant came out at 225 nM; against ALPK1, 36 nM; on hALPK1-V1092A it was 226 nM; in test [1] it was 270 nM.
Take `C#Cc1cccc2sc(NC(=O)c3c(F)ccc(N4CCNCC4)c3F)nc12` [Compound T060, N-(4-ethynylbenzo[d]thiazol-2-yl)-2,6-difluoro-3-(piperazin-1-yl)benzamide]: the IC50 at T237M hALPK1 mutant was determined as 2140 nM; on ALPK1, 44 nM; on hALPK1-V1092A, 5380 nM; in test [1], 1250 nM.
As to `C#Cc1cccc2sc(NC(=O)c3c(F)cc(N4CCNC[C@H]4C)cc3F)nc12` [Compound T061, (R)-N-(4-ethynylbenzo[d]thiazol-2-yl)-2,6-difluoro-4-(2-methylpiperazin-1-yl)benzamide], the IC50 against ALPK1 is 30 nM; in test [1], 300 nM.
In the same order, the values of `C#Cc1cccc2sc(NC(=O)c3c(F)cc(N4CC[C@H](N)C4)cc3F)nc12` [Compound T062, (S)-4-(3-aminopyrrolidin-1-yl)-N-(4-ethynylbenzo[d]thiazol-2-yl)-2,6-difluorobenzamide] are 89 nM and 880 nM.
In the same order, the values of `C#Cc1cccc2sc(NC(=O)c3c(F)cc(N4CCOCC4)cc3F)nc12` [Compound T063, N-(4-ethynylbenzo[d]thiazol-2-yl)-2,6-difluoro-4-morpholinobenzamide] are 165 nM and 1280 nM.
Turning to `C#Cc1cc(F)cc2sc(NC(=O)c3c(F)ccc(N4CCNCC4)c3F)nc12` [Compound T064, N-(4-ethynyl-6-fluorobenzo[d]thiazol-2-yl)-2,6-difluoro-3-(piperazin-1-yl)benzamide], the IC50 is 1690 nM on T237M hALPK1 mutant, 51 nM against ALPK1 and 1030 nM in test [1].
`C#Cc1cccc2sc(NC(=O)c3c(F)cc(N4CCN(Cc5ccc(F)cc5)CC4)cc3F)nc12` [Compound T065, N-(4-ethynylbenzo[d]thiazol-2-yl)-2,6-difluoro-4-(4-(4-fluorobenzyl)piperazin-1-yl)benzamide]: the IC50 against ALPK1 was found to be 182 nM; in test [1] it was 6580 nM.
In the same order, the values of `C#Cc1cccc2sc(NC(=O)c3c(F)cc(-n4ccnc4)cc3F)nc12` [Compound T066, N-(4-ethynylbenzo[d]thiazol-2-yl)-2,6-difluoro-4-(1H-imidazol-1-yl)benzamide] are 367 nM and 1560 nM.
